US8697727B2, “N-substituted-heterocycloalkyloxybenzamide compounds and methods of use” (Rigel Pharmaceuticals, Inc., priority 2006, dated 2014)
pEC50: −log10 of the molar value.

What follows are compounds tested on AMPK (assay: AMPK activation, enzyme-linked immunosorbent assay).
Assay type: cell-based
Method in brief: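 Reported in ranges of less than 1 μM, 1-10 μM, 10-20 μM, 20-50 μM, 50-100 μM, and >100 μM, the values come from a cell-based assay. There, an enzyme-linked immunosorbent assay measured the relative concentration of phosphorylated acetyl-CoA carboxylase as a readout of AMPK activity. The endpoint is the EC50 of each compound for AMPK activation.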
In the case of `O=C(NC1CCN(Cc2ccccc2)CC1)c1ccc(OC2CCN(Cc3ccco3)CC2)cc1` [Compound 3, N-(1-benzylpiperidin-4-yl)-4-(1-(furan-2-ylmethyl)piperidin-4-yloxy)benzamide], the pEC50 was 5.00 to 6.00.
`Cn1cncc1CN1CCC(Oc2ccc(C(=O)NC3CCN(Cc4ccccc4)CC3)cc2)CC1` [Compound 4, N-(1-benzylpiperidin-4-yl)-4-(1-((l-methyl-1H-imidazol-5-yl)methyl)piperidin-4-yloxy)benzamide] was tested, and the pEC50 was < 4.00.
For `Cn1cncc1CN1CCC(Oc2ccc(C(=O)NC3CCN(Cc4ccccc4)CC3)cc2Cl)CC1` [Compound 5, N-(1-benzylpiperidin-4-yl)-3-chloro-4-(1-((l-methyl-1H-imidazol-5-yl)methyl)piperidin-4-yloxy)benzamide], the pEC50 was 4.00 to 4.30.
For `O=C(NC1CCN(Cc2ccccc2)CC1)c1ccc(OC2CCN(Cc3ccncc3)CC2)c(Cl)c1` [Compound 6, N-(1-benzylpiperidin-4-yl)-3-chloro-4-(1-(pyridin-4-ylmethyl)piperidin-4-yloxy)benzamide], the pEC50 was > 6.00.
In the case of `COc1cc(C(=O)NC2CCN(Cc3ccccc3)CC2)ccc1OC1CCN(CCCc2ccccc2)CC1` [Compound 7, N-(1-benzylpiperidin-4-yl)-3-methoxy-4-(1-(3-phenylpropyl)piperidin-4-yloxy)benzamide], the pEC50 was > 6.00.
For `COc1cc(C(=O)NC2CCN(Cc3ccccc3)CC2)ccc1OC1CCN(c2cccs2)CC1` [Compound 8, N-(1-benzylpiperidin-4-yl)-3-methoxy-4-(1-(thiophen-2-yl)piperidin-4-yloxy)benzamide], the pEC50 was 5.00 to 6.00.
`COc1cc(C(=O)NC2CCN(Cc3ccccc3)CC2)ccc1OC1CCN(S(C)(=O)=O)CC1` [Compound 9, N-(1-benzylpiperidin-4-yl)-3-methoxy-4-(1-(methylsulfonyl)piperidin-4-yloxy)benzamide] was tested, and the pEC50 was 4.30 to 4.70.
`O=C(NC1CCN(Cc2ccccc2)CC1)c1ccc(OC2CCN(c3cccs3)CC2)c(Cl)c1` [Compound 10, N-(1-benzylpiperidin-4-yl)-3-chloro-4-(1-(thiophen-2-yl)piperidin-4-yloxy)benzamide] gave a pEC50 of 5.00 to 6.00.
Work on `O=C(NC1CCN(Cc2ccccc2)CC1)c1ccc(OC2CCN(c3ccco3)CC2)c(Cl)c1` [Compound 11, N-(1-benzylpiperidin-4-yl)-3-chloro-4-(1-(furan-2-yl)piperidin-4-yloxy)benzamide] yielded a pEC50 of 5.00 to 6.00.
`COc1cc(C(=O)NC2CCN(Cc3ccccc3)CC2)ccc1OC1CCN(c2ccco2)CC1` [Compound 12, N-(1-benzylpiperidin-4-yl)-3-methoxy-4-(1-(furan-2-yl)piperidin-4-yloxy)benzamide] showed a pEC50 of 5.00 to 6.00.
`O=C(NC1CCN(Cc2ccccc2)CC1)c1cccc(OC2CCN(Cc3ccccc3)CC2)c1` [Compound 13, N-(1-benzylpiperidin-4-yl)-3-(1-benzylpiperidin-4-yloxy)benzamide] was tested, and the pEC50 was 4.30 to 4.70.
`O=C(NC1CCN(Cc2ccccc2)CC1)c1ccc(OC2CCN(Cc3ccccc3)CC2)c(Cl)c1` [Compound 14, N-(1-benzylpiperidin-4-yl)-4-(1-benzylpiperidin-4-yloxy)-3-chlorobenzamide] was tested, and the pEC50 was > 6.00.
In the case of `O=C(NC1CCN(Cc2ccccc2)CC1)c1ccc(OC2CCN(Cc3ccc4c(c3)OCCO4)CC2)c(Cl)c1` [Compound 15, N-(1-benzylpiperidin-4-yl)-3-chloro-4-(1-((2,3-dihydrobenzo[b][1,4]dioxin-6-yl)methyl)piperidin-4-yloxy)benzamide], the pEC50 was > 6.00.
`CC(C)(C)c1ccc(CN2CCC(Oc3ccc(C(=O)NC4CCN(Cc5ccccc5)CC4)cc3Cl)CC2)cc1` [Compound 16, N-(1-benzylpiperidin-4-yl)-4-(1-(4-tert-butylbenzyl)piperidin-4-yloxy)-3-chlorobenzamide] was tested, and the pEC50 was > 6.00.
For `O=C(NC1CCN(Cc2ccccc2)CC1)c1ccc(OC2CCN(c3ccc(C(F)(F)F)cc3)CC2)c(Cl)c1` [Compound 17, N-(1-benzylpiperidin-4-yl)-3-chloro-4-(1-(4-(trifluoromethyl)phenyl)piperidin-4-yloxy)benzamide], the pEC50 was > 6.00.
